For 15 compounds, IC50 results are on record in US10202354B2, “Therapeutic compounds and uses thereof” (GENENTECH, INC., priority 2015, dated 2019).

For this test, the target named is Full length KDM2B (Homo sapiens (Human), UniProt Q8NHM5). Description: KDM2B TR-FRET Assay for Determining Inhibitor IC50. It is filed as biochemical. Conditions: TR-FRET (HTRF), biotin-H3K36me2 peptide substrate. An excerpt:
KDM2B TR-FRET Assay for Determining Inhibitor IC50
The KDM2B TR-FRET Assay described above represents an additional embodiment of the invention.

Chain of Full length KDM2B (Q8NHM5 whole entry): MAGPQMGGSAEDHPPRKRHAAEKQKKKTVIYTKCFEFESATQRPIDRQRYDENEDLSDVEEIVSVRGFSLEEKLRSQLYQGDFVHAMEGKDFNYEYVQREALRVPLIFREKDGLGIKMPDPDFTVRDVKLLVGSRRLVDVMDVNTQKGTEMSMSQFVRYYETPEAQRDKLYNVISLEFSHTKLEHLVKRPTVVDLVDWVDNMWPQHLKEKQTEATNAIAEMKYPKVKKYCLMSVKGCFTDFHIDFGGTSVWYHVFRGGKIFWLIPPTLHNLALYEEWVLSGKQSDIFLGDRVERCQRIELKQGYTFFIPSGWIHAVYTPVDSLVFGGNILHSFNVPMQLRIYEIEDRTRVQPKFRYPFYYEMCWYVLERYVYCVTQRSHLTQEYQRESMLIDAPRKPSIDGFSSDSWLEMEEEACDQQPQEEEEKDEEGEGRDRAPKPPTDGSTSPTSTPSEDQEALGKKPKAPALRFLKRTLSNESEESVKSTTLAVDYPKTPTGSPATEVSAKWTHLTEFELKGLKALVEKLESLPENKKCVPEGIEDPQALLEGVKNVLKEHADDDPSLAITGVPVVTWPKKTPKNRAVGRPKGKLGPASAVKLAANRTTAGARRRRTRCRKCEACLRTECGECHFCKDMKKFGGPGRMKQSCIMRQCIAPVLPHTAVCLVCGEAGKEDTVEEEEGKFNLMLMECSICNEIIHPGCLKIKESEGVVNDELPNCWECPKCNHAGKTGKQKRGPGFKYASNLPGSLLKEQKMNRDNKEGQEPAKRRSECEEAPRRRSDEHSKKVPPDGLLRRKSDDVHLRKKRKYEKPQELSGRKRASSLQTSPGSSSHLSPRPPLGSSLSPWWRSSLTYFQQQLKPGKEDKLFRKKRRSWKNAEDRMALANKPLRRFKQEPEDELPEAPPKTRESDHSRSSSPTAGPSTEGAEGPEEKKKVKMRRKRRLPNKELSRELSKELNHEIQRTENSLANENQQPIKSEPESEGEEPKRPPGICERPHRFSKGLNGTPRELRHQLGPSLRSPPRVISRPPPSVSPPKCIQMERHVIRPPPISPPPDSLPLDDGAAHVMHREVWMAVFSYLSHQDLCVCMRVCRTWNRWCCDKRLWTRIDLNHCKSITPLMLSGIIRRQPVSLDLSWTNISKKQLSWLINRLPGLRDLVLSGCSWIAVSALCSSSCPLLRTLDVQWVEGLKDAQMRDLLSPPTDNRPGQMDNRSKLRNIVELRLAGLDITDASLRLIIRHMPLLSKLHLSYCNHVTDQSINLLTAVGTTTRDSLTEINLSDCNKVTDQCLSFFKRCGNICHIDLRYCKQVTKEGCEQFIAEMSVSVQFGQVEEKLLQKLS

Usually IC50 stands for the midpoint of a concentration-inhibition curve. In the case of `CC(C)c1ccc(S(=O)(=O)N2CCN=C2N2C3CCC2CN(C2CCC2)C3)cc1` [Example 48, 3-cyclobutyl-8-[1-(4-isopropylphenyl)sulfonyl-4,5-dihydroimidazol-2-yl]-3,8-diazabicyclo[3.2.1]octane], the IC50 was found to be 1.19 nM.
The figure for `CCN1CCN(C2=NCCN2S(=O)(=O)c2ccc(Cl)cc2Cl)CC1` [Example 100, 1-[1-(2,4-dichlorophenyl)sulfonyl-4,5-dihydroimidazol-2-yl]-4-ethyl-piperazine] is 2.83 nM; for `O=S(=O)(c1ccc(-c2cccnc2)cc1)N1CCN=C1N1CCN(C2CCC2)CC1` [Example 7, 1-cyclobutyl-4-[1-[4-(3-pyridyl)phenyl]sulfonyl-4,5-dihydroimidazol-2-yl]piperazine] it is 0.151 nM.
The figure for `O=C(c1ccccc1Cl)N1CCN=C1N1CCN(C2CCC2)CC1` [Example 87, (2-chlorophenyl)-[2-(4-cyclobutylpiperazin-1-yl)-4,5-dihydroimidazol-1-yl]methanone] is 2.23 nM.
The figure for `O=S(=O)(c1cc(Cl)cc(Cl)c1)N1CCN=C1N1CCN(C2CCC2)CC1` [Example 62, 1-cyclobutyl-4-[1-(3,5-dichlorophenyl)sulfonyl-4,5-dihydroimidazol-2-yl]piperazine] is 0.306 nM; for `O=S(=O)(c1ccc(-c2ccccc2F)cc1)N1CCN=C1N1CCN(C2CCC2)CC1` [Example 25, 1-cyclobutyl-4-[1-[4-(2-fluorophenyl)phenyl]sulfonyl-4,5-dihydroimidazol-2-yl]piperazine] it is 0.046 nM; for `CCN1CCN(C2=NCCN2S(=O)(=O)c2cccc(C(F)(F)F)c2)CC1` [Example 103, 1-ethyl-4-[1-[3-(trifluoromethyl)phenyl]sulfonyl-4,5-dihydroimidazol-2-yl]piperazine] it is 6.99 nM.
The compound `O=S(=O)(c1ccc(-c2ccccc2Cl)cc1)N1CCN=C1N1CCN(C2CCC2)CC1` [Example 21, 1-[1-[4-(2-chlorophenyl)phenyl]sulfonyl-4,5-dihydroimidazol-2-yl]-4-cyclobutyl-piperazine] had a 50% inhibitory concentration (IC50) of 0.084 nM. This IC50 lies about 83-fold lower than the previous one.
The figure for `O=S(=O)(c1ccc(-c2ccccn2)cc1)N1CCN=C1N1CCN(C2CCC2)CC1` [Example 6, 1-cyclobutyl-4-[1-[4-(2-pyridyl)phenyl]sulfonyl-4,5-dihydroimidazol-2-yl]piperazine] is 0.102 nM; for `CC(C)c1ccc(S(=O)(=O)N2CCN=C2N2CCC(N3CCOCC3)CC2)cc1` [Example 49, 4-[1-[1-(4-isopropylphenyl)sulfonyl-4,5-dihydroimidazol-2-yl]-4-piperidyl]morpholine] it is 4.22 nM; for `CCN1CCN(C2=NCCN2S(=O)(=O)c2ccc(F)cc2F)CC1` [Example 109, 1-[1-(2,4-difluorophenyl)sulfonyl-4,5-dihydroimidazol-2-yl]-4-ethyl-piperazine] it is 6.33 nM.
The figure for `O=S(=O)(c1ccc(-c2cccc(O)c2)cc1)N1CCN=C1N1CCN(C2CCC2)CC1` [Example 16, 3-[4-[[2-(4-cyclobutylpiperazin-1-yl)-4,5-dihydroimidazol-1-yl]sulfonyl]phenyl]phenol] is 0.034 nM; for `CCN1CCN(C2=N[C@H](C)CN2S(=O)(=O)c2ccc(C(C)C)cc2)CC1` [Example 43, (R)-1-ethyl-4-[1-(4-isopropylphenyl)sulfonyl-4-methyl-4,5-dihydroimidazol-2-yl]piperazine] it is 8.76 nM.
The figure for `CCN1CCN(C2=NCCN2S(=O)(=O)c2ccccc2OC(F)(F)F)CC1` [Example 33, 1-ethyl-4-[1-[2-(trifluoromethoxy)phenyl]sulfonyl-4,5-dihydroimidazol-2-yl]piperazine] is 8.51 nM; for `O=S(=O)(c1ccc(-c2ccc(F)cc2)cc1)N1CCN=C1N1CCN(C2CCC2)CC1` [Example 27, 1-cyclobutyl-4-[1-[4-(4-fluorophenyl)phenyl]sulfonyl-4,5-dihydroimidazol-2-yl]piperazine] it is 0.071 nM.
